Experimental data from patent US20100311585A1, “HERBICIDAL COMPOSITION AND METHOD OF USE THEREOF” (SYNGENTA CROP PROTECTION, INC., priority 2007, published 2010).

Assays:
[1] = system: goosegrass (Eleusine indica); test: Glasshouse trial, control of goosegrass, post-emergence application; type: in vivo; parameters: key: % weed control; expected = A+B−(A×B/100) (Colby); conditions: for Actual (weed control): X-77 0.1% v/v, * indicates synergy
Method: (§1) In the following tests, herbicides were applied at reduced field rates because herbicide effects are magnified in a glasshouse environment. The rates tested were selected to give between about 50 and 70% control with herbicides applied alone, so that any synergistic effect could be readily detected when testing mixtures. A glasshouse trial was carried out. Goosegrass seeds were sown into standard glasshouse potting mix (1:1 v/v Promix: Vero sand soil) contained in 10 cm square plastic pots. Treatments were replicated three times. Mesotrione (in the form Callisto® 480SE) was applied post-emergence to goosegrass (Eleusine indica) at either 100 g ai/ha or 200 g ai/ha with or without ethofumesate (in the form Prograss®). When used, ethofumesate was applied at a rate of 210 g ai/ha, 420 g ai/ha or 840 g ai/ha. The adjuvant system was X-77 at 0.1% v/v in deionised water. 200 litres of herbicide/adjuvant system was used per hectare. General weed control was evaluated at 7 and 14 days after treatment (DAT). It is noted that all herbicides were applied at reduced field rates because herbicide effects are magnified in a glasshouse environment. Rates were chosen to give a 50 to 70% level of control with herbicides applied alone as this allows for detection of any synergistic effect when tank mixtures are used. The results were evaluated using the Colby formula. The expected result for (A+B) is (A+B)−(A×B/100) where A and B are the ‘observed’ results for A and B on their own.

[2] = system: Medicago lupulina (black medic); test: Glasshouse trial, control of black medic, post-emergence application; type: in vivo; conditions: ethofumesate 210 g ai/ha plus mesotrione at 100 g ai/ha
Method: as §1, with “A” for “In the following tests, herbicides were applied at reduced field rates because herbicide effects are magnified in a glasshouse environment. The rates tested were selected to give between about 50 and 70% control with herbicides applied alone, so that any synergistic effect could be readily detected when testing mixtures. A”, “own. […] A glasshouse trial was carried out as described in Example 1, except that Medicago lupulina (black medic) was used in place of goosegrass, and only one rate combination was tested.” for “own.”

[3] = ethofumesate 210 g ai/ha plus mesotrione at 200 g ai/ha
[4] = ethofumesate 420 g ai/ha plus mesotrione at 100 g ai/ha
[5] = ethofumesate 420 g ai/ha plus mesotrione at 200 g ai/ha
[6] = ethofumesate 840 g ai/ha plus mesotrione at 100 g ai/ha
[7] = ethofumesate 840 g ai/ha plus mesotrione at 200 g ai/ha

With `CCOC1Oc2ccc(OS(C)(=O)=O)cc2C1(C)C` (racemic) [Ethofumesate, (±)-2-ethoxy-2,3-dihydro-3,3-dimethylbenzofuran-5-yl methanesulfonate] the “Expected (weed control, Colby formula)” value [1, 3] was 30, the “Actual (weed control)” value [1, 3] was 45* and the “Expected (weed control, Colby formula)” value [1, 4] was 25. For the same compound, the “Actual (weed control)” value [1, 4] was 37*, the “Expected (weed control, Colby formula)” value [1, 5] was 30 and the “Actual (weed control)” value [1, 5] was 52*. For the same compound, the “Expected (weed control, Colby formula)” value [1, 6] was 25, the “Actual (weed control)” value [1, 6] was 55* and the “Expected (weed control, Colby formula)” value [1, 7] was 30. For the same compound, the “Actual (weed control)” value [1, 7] was 72*, the “Expected (weed control, Colby formula)” value [2] was 85 and the “Actual (weed control)” value ([2]; * indicates synergy) was 94*.
